One may read the EC50 as the midpoint of the concentration-response curve. For orientation: Emax means the maximal effect, on the per cent scale that the assay sets. One may read the half-life as how long it takes for the measured level to halve. A higher half-life goes with slow loss. The term Ki denotes a dissociation constant, usually derived from enzyme kinetics or from competition with a known ligand. A higher Ki goes with a looser hold on the target.

Active and inactive are the calls of the source. The calls are words filed in the database; no cut-off is given here. Starred links: 1 amine or outer side, 2 acyl side, 3 side chain; linkers in the order of their positions; H or OH if unused. Positions of bridges follow the written chain, without caps; N, C: chain ends. Non-standard residues stand in square brackets, D forms with d. Residues, ends and D or L forms follow the SMILES beside them. Chains are numbered I, II in the order given. NHNH = N(N[*:2])[*:1]

The results in this text go back to ChEMBL document CHEMBL4190333, “Cyclic Biphalin Analogues Incorporating a Xylene Bridge: Synthesis, Characterization, and Biological Profile” (ACS Med Chem Lett, 2017).

The nature of series [1]: (§1) Agonist activity at heteromeric G-protein in Wistar rat whole brain membranes after 30 mins by [35S]GTPgammaS binding assay. In kind it is cell membranes, Membrane. (GTPγS is a poorly hydrolysed GTP analogue; its binding reports G protein activation.)
For series [2], the species on record is Rattus norvegicus. Described as §1. The following applies: Membrane. The format is cell membranes.
The subject of series [3] is Mus musculus. Kind of series: Analgesic activity in formalin-induced nociception Harlan CD-1 mouse model assessed as reduction in time spent in licking or biting formalin injected hind paw during neurogenic phase at 0.1 nmol, sc pretreated for 15 mins followed by formalin induction measured up to 10 mins. The format is functional, organism-based.
Series [4] in a line: Half life in human plasma at 100 ug/ml by HPLC method. In kind it is ADME, cell-free.
For series [5], the target named is Mu-type opioid receptor (Rattus norvegicus, UniProt P33535). Kind of series: Displacement of [3H]DAMGO from MOR in Wistar rat whole brain membranes after 45 mins by liquid scintillation counting method. In kind it is cell membranes, Membrane.
Chain of Mu-type opioid receptor (Rattus norvegicus, UniProt P33535) (P33535 whole entry): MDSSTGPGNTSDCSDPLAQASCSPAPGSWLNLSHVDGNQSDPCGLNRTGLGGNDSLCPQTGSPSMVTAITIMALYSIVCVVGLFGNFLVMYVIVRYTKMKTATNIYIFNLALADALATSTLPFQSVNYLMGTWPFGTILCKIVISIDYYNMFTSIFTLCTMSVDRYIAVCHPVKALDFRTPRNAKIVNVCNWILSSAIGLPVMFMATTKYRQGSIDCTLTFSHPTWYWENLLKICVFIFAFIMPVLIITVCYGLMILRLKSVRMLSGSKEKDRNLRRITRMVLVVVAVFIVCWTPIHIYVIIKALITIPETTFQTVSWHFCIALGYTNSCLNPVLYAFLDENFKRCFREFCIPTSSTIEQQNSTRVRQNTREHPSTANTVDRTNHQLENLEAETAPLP
Series [6] concerns Mus musculus. Kind of series: Antinociceptive activity in Harlan CD-1 mouse model of thermal-induced nociception assessed as increase in latency to tail withdrawal at 0.01 nmol, icv measured after 45 to 90 mins by tail flick test. The format is functional, organism-based.
The test system of series [7] is Mus musculus. Put plainly: Analgesic activity in formalin-induced nociception Harlan CD-1 mouse model assessed as reduction in time spent in licking or biting formalin injected hind paw during inflammatory phase at 0.1 nmol, sc pretreated for 15 mins followed by formalin induction measured after 15 to 40 mins. The format is functional, organism-based.
Series [8] is filed under the species Mus musculus. Put plainly: Antinociceptive activity in Harlan CD-1 mouse model of thermal-induced nociception assessed as increase in latency to tail withdrawal at 0.01 nmol, i.t measured after 45 to 120 mins by tail flick test. The format is functional, organism-based.
Series [9] addresses Delta-type opioid receptor (Rattus norvegicus, UniProt P33533). Kind of series: Displacement of [3H]lleDelt2 from DOR in Wistar rat whole brain membranes after 45 mins by liquid scintillation counting method. The format is cell membranes, Membrane.
For series [10], the species on record is Rattus norvegicus. Put plainly: Selectivity ratio of Ki for displacement of [3H]lleDelt2 from DOR in Wistar rat whole brain membranes to displacement of [3H]DAMGO from MOR in Wistar rat whole brain membranes. The format is cell membranes. For orientation: Loss of bound radioactivity is the signal in a displacement assay; it reports binding, not function.

The test system of series [11] is Mus musculus. Put plainly: Antinociceptive activity in Harlan CD-1 mouse model of thermal-induced nociception assessed as increase in latency to tail withdrawal at 0.01 nmol, icv measured after 15 to 120 mins by tail flick test. In kind it is functional, organism-based. A general note: Thermal pain tests record how soon the animal reacts.
For series [12], the species on record is Mus musculus. Put plainly: Antinociceptive activity in Harlan CD-1 mouse model of thermal-induced nociception assessed as increase in latency to tail withdrawal at 0.01 nmol, i.t measured after 15 to 120 mins by tail flick test. In kind it is functional, organism-based.
Series [13] concerns the target Mu-type opioid receptor (Homo sapiens, UniProt P35372). Kind of series: Binding affinity to MOR (unknown origin).

Chain of Delta-type opioid receptor (P33533 whole entry): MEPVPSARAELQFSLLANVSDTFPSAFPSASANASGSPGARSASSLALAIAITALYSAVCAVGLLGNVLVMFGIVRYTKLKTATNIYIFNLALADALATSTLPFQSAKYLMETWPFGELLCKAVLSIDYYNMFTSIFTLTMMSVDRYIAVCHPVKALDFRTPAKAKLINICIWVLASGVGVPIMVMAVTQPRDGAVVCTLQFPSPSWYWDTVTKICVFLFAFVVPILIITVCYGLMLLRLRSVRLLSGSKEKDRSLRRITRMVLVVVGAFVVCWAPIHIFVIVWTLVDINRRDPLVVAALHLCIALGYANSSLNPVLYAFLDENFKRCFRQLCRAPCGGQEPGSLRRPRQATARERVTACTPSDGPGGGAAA
Chain of Mu-type opioid receptor (Homo sapiens, UniProt P35372) (P35372 whole entry): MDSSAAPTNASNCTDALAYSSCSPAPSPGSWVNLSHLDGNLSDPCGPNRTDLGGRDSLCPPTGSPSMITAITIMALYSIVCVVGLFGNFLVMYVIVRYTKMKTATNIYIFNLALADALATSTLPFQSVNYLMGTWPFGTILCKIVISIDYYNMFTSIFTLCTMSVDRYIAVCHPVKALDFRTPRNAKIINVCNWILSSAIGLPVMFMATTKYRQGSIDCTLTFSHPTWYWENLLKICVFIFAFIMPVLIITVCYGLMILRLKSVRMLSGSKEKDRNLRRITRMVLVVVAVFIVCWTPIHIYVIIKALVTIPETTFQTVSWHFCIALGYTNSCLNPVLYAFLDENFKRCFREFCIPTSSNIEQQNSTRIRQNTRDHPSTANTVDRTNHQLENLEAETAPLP

For the compound `N[C@@H](Cc1ccc(O)cc1)C(=O)N[C@@H]1CSCc2ccccc2CSC[C@@H](NC(=O)[C@@H](N)Cc2ccc(O)cc2)C(=O)NCC(=O)N[C@@H](Cc2ccccc2)C(=O)NNC(=O)[C@H](Cc2ccccc2)NC(=O)CNC1=O.O=C(O)C(F)(F)F.O=C(O)C(F)(F)F`, in series [1], a half-maximal effect (EC50) was put at 247 nM. Further, in the series listed under Rattus norvegicus [2], the Emax worked out at 137%. Also, the result with Mus musculus [3], with Mus musculus [6], in the series on Mus musculus [7] and in the series filed under Mus musculus [8] was Active. The half-life at 100 ug/ml in [4] is 1.45 h. The values for the Ki (at Mu-type opioid receptor [5]; in series [9]) were 1.33 nM and 2.26 nM, respectively. Further, in the series listed under Rattus norvegicus [10], the Ratio Ki was determined as 1.8.
Turning to `N[C@@H](Cc1ccc(O)cc1)C(=O)N[C@@H]1CSSC[C@@H](NC(=O)[C@@H](N)Cc2ccc(O)cc2)C(=O)NCC(=O)N[C@@H](Cc2ccccc2)C(=O)NNC(=O)[C@H](Cc2ccccc2)NC(=O)CNC1=O` (I: H-Y[dC]GF / II: H-Y[dC]GF; disulfide I:2-II:2; linker I:C-II:C via NHNH), the midpoint of the response in series [1], the EC50, lay at 508 nM. The compound further gave a maximal response (Emax) in the series filed under Rattus norvegicus [2] of 146%. For the same compound, the Ki amounted to 6.06 nM at Mu-type opioid receptor [5] and 5.25 nM in [9]. The Ratio Ki in the series listed under Rattus norvegicus [10] stood at 0.9.
In turn, `N[C@@H](Cc1ccc(O)cc1)C(=O)N[C@@H]1CSCc2cccc(c2)CSC[C@@H](NC(=O)[C@@H](N)Cc2ccc(O)cc2)C(=O)NCC(=O)N[C@@H](Cc2ccccc2)C(=O)NNC(=O)[C@H](Cc2ccccc2)NC(=O)CNC1=O` showed an EC50 in [1] of 213 nM. This compound returned an Emax in the series filed under Rattus norvegicus [2] of 160%. For the same compound, the result in the series with Mus musculus [3], with Mus musculus [7], in the series on Mus musculus [11] and in the series filed under Mus musculus [12] was Active. Also, the inhibitory constant (Ki) at Mu-type opioid receptor [5] was 1.73 nM; in series [9], 3.81 nM. The Ratio Ki in the series filed under Rattus norvegicus [10] worked out at 2.2.
`C[C@@H](NC(=O)[C@@H](N)Cc1ccc(O)cc1)C(=O)NCC(=O)N[C@@H](Cc1ccccc1)C(=O)NNC(=O)[C@H](Cc1ccccc1)NC(=O)CNC(=O)[C@@H](C)NC(=O)[C@@H](N)Cc1ccc(O)cc1` [BIPHALIN]: the EC50 was 1 to 4 nM on Mu-type opioid receptor [13] and 75.4 nM in [1]. This compound also came in with a maximal effect (Emax) in the series filed under Rattus norvegicus [2] of 177%. The result with Mus musculus [3] and in the series with Mus musculus [7] was Active. The half-life at 100 ug/ml in [4] worked out at 0.55 h. Further, the Ki was 0.79 nM on Mu-type opioid receptor [5] and 3.5 nM in [9].
Regarding `N[C@@H](Cc1ccc(O)cc1)C(=O)N[C@@H]1CSCc2ccc(cc2)CSC[C@@H](NC(=O)[C@@H](N)Cc2ccc(O)cc2)C(=O)NCC(=O)N[C@@H](Cc2ccccc2)C(=O)NNC(=O)[C@H](Cc2ccccc2)NC(=O)CNC1=O`, a half-maximal response in series [1] (EC50) required 87.4 nM. For the same compound, the Emax in the series listed under Rattus norvegicus [2] came out at 150%. In addition, the outcome in the series on Mus musculus [3], in the series with Mus musculus [7], in the series with Mus musculus [11] and in the series listed under Mus musculus [12] was Active. Besides, the values for the Ki (on Mu-type opioid receptor [5]; in [9]) were 1.61 nM and 2.52 nM, respectively. Besides, the Ratio Ki in the series filed under Rattus norvegicus [10] is 1.5.
